{"source": "patent US20240230688A1", "about": "“METHOD FOR DETERMINING PERSONALIZED OMEGA-3 DOSE” (SOCIETE DES PRODUITS NESTLE S.A., priority 2021, published 2024)", "origin": "cited, not measured here", "system": "pregnant women", "conditions": "women who took supplement during pregnancy compared to those who did not", "data": [{"compound": "CC/C=C\\C/C=C\\C/C=C\\C/C=C\\C/C=C\\C/C=C\\CCC(=O)O", "note": "[DHA supplement, (4Z,7Z,10Z, 13Z, 16Z, 19Z)-4,7,10,13,16, 19-Docosahexaenoic acid]", "values": [{"measurement": "less likely to have early preterm birth", "value": 42, "unit": "%"}]}]}
